Laboratory results from patent publication US6620792B1, “Pharmaceutical compositions containing monosialoganglioside GM1 or derivative thereof suitable for the treatment of parkinson's disease” (Fidia S.p.A., priority 1992, dated 2003).
Marks after values point to notes of the source that are not given here.

Legend:
[1] = tested on: MPTP-treated squirrel monkeys; test: motor behaviour rating of MPTP-treated squirrel monkeys; format: in vivo
Description: (§1) In vivo experiments with GM1 were carried out on 15 (male or female) squirrel monkeys and 4 cynomolgus monkeys.
(§2) The monkeys were administered MPTP saline solution after being anaesthesized i.m. with ketamine HCl 5 mg/kg, as follows:
2 mg/kg/dose, i.m. (squirrel monkeys).
(§3) MPTP was administered every third day until complete manifestation of parkinsonian motor symptomatology was obtained, i.e. akinesia, lack of responsiveness to stimulation, inability to climb, to feed autonomously, and to groom. Thirty points min. (as will be defined in the explanation of FIG. 1) had to be obtained during the 48-60 hours following the last MPTP administration; then animals in pairs were subdivided at random into two treatment groups, i.e. treatment with GM1 or with saline solution. […]
(§4) In particular, the following functions were recorded: overall activity, ability to climb, locomotion/gait, upper and lower limb movements, detailed motor ability, bradykinesia/akinesia, dyskinesia/dystonia, carriage, tremor, balance, grooming ability, sudden immobility during movements, and ability to feed. […]
(§5) FIGS. 1 and 2 are now being considered in detail. […] Columns represent the average points (±S.D.); normal point is 0, MPTP points are the points recorded after the last MPTP injection but prior to the administration of associated GM1-saline solution. […]

[2] = tested on: MPTP-treated cynomolgus monkeys; test: motor behaviour rating of MPTP-treated cynomolgus monkeys; format: in vivo; conditions: GM1 15 mg/kg/day i.m.; p<0.05 vs saline solution
Description: as §1, §2
0.35 mg/kg/dose, i.v. (cynomolgus monkeys)
as §3, §4, §5

[3] = tested on: MPTP-treated cynomolgus monkeys; test: object grasping test in MPTP-treated cynomolgus monkeys; format: in vivo; conditions: GM1 15 mg/kg/day i.m., investigation end
Description: The behaviour and neurologic functions of cynomolgus monkeys were also tested. Said monkeys were also trained to grasp an object, which has proven to be indicative of the motor and cognitive functions of MPTP-treated monkeys (Taylor J. R. et al., Brain, 113, 617, 1990).
The grasping test was carried out according to Diamond A.: “The development and neural bases of higher cognitive functions”, Annals of the New York Academy of Sciences, vol. 608, A. Diamond Ed. (The New York Academy of Sciences, New York, 637-676, 1990).
Briefly, monkeys were trained to stretch their arm out of their cage to grasp food (raisins or apple) from a Plexiglas box (15 cm×15 cm×5 cm), open on one side and fastened to a platform allowing side movement and rotation.
The box open side could happen to be in front of, on the left or on the right side of the monkey. Each experiment consisted of 30 tests. The following events were recorded: successful arm stretchings (food grasped at the first attempt), correct stretchings (food grasped after various attempts), and “barrier” stretchings (i.e. towards the closed side of the box rather than-around the box until reaching the open side of same). Should no food be grasped within 5 minutes, the test was judged to be without response.
FIG. 2 illustrates the effects produced by MPTP and GM1 on cynomolgus monkeys in the “object grasping” test. […]

[4] = tested on: MPTP-treated squirrel monkeys; test: post-mortem striatal dopamine and metabolite levels by HPLC, squirrel monkeys; format: in vivo; conditions: MPTP/GM1, average (S.D.)
Description: (§6) Post-mortem neurochemical examinations of striatal tissue were carried out for the determination of dopamine (DA) and relevant metabolites, e.g. homovanillic acid (HVA), and […] (DOPAC). DA and relevant metabolites striatal levels were quantified by electrochemical […] high pressure liquid chromatography (HPLC) (Schneider J. S., Brain Res., 24, 534, 1990).

[5] = tested on: MPTP-treated cynomolgus monkeys; test: post-mortem striatal dopamine and metabolite levels by HPLC, cynomolgus monkeys; format: in vivo; conditions: MPTP/GM1, average (S.D.)
Description: as §6

[6] = tested on: mesencephalic dopaminergic neurons; test: TOPA neurotoxicity in mesencephalic dopaminergic neuron cultures, TH immunofluorescence; format: cell-based, rat; conditions: for TH+ cells (% control): counted 24 h later, mean ± S.E.M.
Description: Mesencephalic neuron cultures were prepared according to Dal Toso et al. (Dal Toso et al.: “Development and survival of neurons in dissociated fetal mesencephalic serum-free cell cultures: I. Effects of cell density and of an adult mammalian striatal-derived neuronotrophic factor (SDNF)”, J. Neurosci., 8 (3) 733-745, 1988) from the mesencephalic tegmentum of 14.5-15 days' rat embryos.
Neurons (0.75×10^6) were plated on a poly-L-ornithine substrate in 12-well (25 mm dia. each) clusters.
Cultures were used between the fourth and the sixth day without changing the medium. […]
2-hour pretreatment before acute incubation with TOPA;
cotreatment only with LIGA 20 before acute incubation with TOPA;
pretreatment with/without cotreatment before (100 μM for 2 h) and/or during (100 μM for 24 h) prolonged incubation with TOPA. TOPA cytotoxicity was determined by evaluating cellular survival, and more precisely:
TH immunofluorescence (specific for tyrosine hydroxylase) in mesencephalic dopaminergic neurons, as described by Berger et al. (Berger B. et al.: “Long-term development of mesencephalic dopaminergic neurons of mouse embryos in dissociated primary cultures: morphological and histochemical characteristics”, Neurosci., 7, 193-205, 1982);
Cytotoxicity is expressed as per cent cellular survival.
The results of the two tests (in triplicate) were analysed statistically according to Duncan's test.

## monosialoganglioside [GM1]
[1]; GM1 30 mg/kg/day i.m., p<0.01 vs saline solution
  motor behaviour at the investigation end: almost normal behaviour
[1]; GM1 chronic i.m. administration, end of 6-8 weeks' investigation, MPTP monkeys, species not separated (FIG. 1)
  recovered motor behaviour: 86-89%
[2]
  motor behaviour at the investigation end: almost normal behaviour
[3]
  object grasping test performance: fulfilled the task almost perfectly
[4]; Dorsolateral caudatum
  DA striatal level: 8.6(1.2)* ng/mg protein
  DOPAC striatal level: 3.3(0.9)* ng/mg protein
  HVA striatal level: 46.2(6.5)* ng/mg protein
[4]; Dorsolateral putamen
  DA striatal level: 4.2(0.8)* ng/mg protein
  DOPAC striatal level: 1.3(0.2)* ng/mg protein
  HVA striatal level: 45.9(6.9)* ng/mg protein
[4]; Ventromedial caudatum
  DA striatal level: 37.4(4.2)* ng/mg protein
  DOPAC striatal level: 12.7(3.6)* ng/mg protein
  HVA striatal level: 56.6(11.9)* ng/mg protein
[4]; Ventromedial putamen
  DA striatal level: 21.9(6.1)* ng/mg protein
  DOPAC striatal level: 5.9(1.6)* ng/mg protein
  HVA striatal level: 87.5(17.3)* ng/mg protein
[5]; Dorsolateral caudatum
  DA striatal level: 4.4(0.6)* ng/mg protein
  DOPAC striatal level: 2.7(0.3)* ng/mg protein
  HVA striatal level: 55.9(12.0)* ng/mg protein
[5]; Dorsolateral putamen
  DA striatal level: 3.7(0.9) ng/mg protein
  DOPAC striatal level: 2.1(0.8)* ng/mg protein
  HVA striatal level: 51.9(9.4)* ng/mg protein
[5]; Ventromedial caudatum
  DA striatal level: 12.9(2.8)* ng/mg protein
  DOPAC striatal level: 6.6(0.7)* ng/mg protein
  HVA striatal level: 60.9(6.9)* ng/mg protein
[5]; Ventromedial putamen
  DA striatal level: 11.2(4.1)* ng/mg protein
  DOPAC striatal level: 7.1(3.2)* ng/mg protein
  HVA striatal level: 100.3(11.9)* ng/mg protein
[6]; 10 μM GM1 with 1 ng/ml BDNF, compared with saturation concentration (50 ng/ml) of BDNF alone
  number of neurons which survived the TOPA-induced toxic insult: not significantly different
[6]; 100 μM compound incubated with TOPA 10 μM for 24 h, average ± S.D., control 244 ± 20
  No. of TH+ cells: 187 ± 10 (b)
[6]; 200 μM GM1 2 h pretreatment, washed, then 100 μM TOPA for 45 minutes
  TH+ cells (% control): 79.1 ± 4.0 % control
[6]; 200 μM GM1 cotreatment with 100 μM TOPA for 45 minutes, no drug 5.2 ± 1.1
  TH+ cells (% control): 5.6 ± 0.7 % control
[6]; ganglioside 1-10 μM with BDNF 1 ng/ml
  effect of association with BDNF in protecting against TOPA-induced neurotoxicity: synergic effect
[6]; ganglioside alone at 1-10 μM
  neuroprotective activity alone against TOPA-induced neurotoxicity: no neuroprotective activity of their own
